Laboratory results: patent US11427605B2, “Crystalline forms of 5-chloro-N4-[-2-(dimethylphosphoryl) phenyl]-N2-{2-methoxy-4-[4-(4-methylpiperazin-1-yl) piperidin-1-yl] phenyl} pyrimidine-2,4-diamine” (ARIAD Pharmaceuticals, Inc., priority 2014, dated 2022)
Values after ≈ are worked out from the molar mass of the structure shown. Values joined by “and” are separate entries in the source; they are usually repeats but may differ in a detail not shown here. Equal values may be shown once.

Tests used:
Assay type in all cases: physicochemical
[1] = Freeze-drying feasibility study; conditions: organic solvent or mixture, thermodynamic from solid, data obtained from freeze drying experiment
Protocol: Freeze-drying. Six freeze-drying experiments were performed with samples of Form A as described in Table 10. Samples 1, 2, and 4 remained mostly crystalline, but samples 3 and 5 were amorphous and contained about 15-16% residual solvent. Sample 6 was amorphous and contained about 7% residual solvent. Forms E and F were produced using this method. However, due to the variable form and solvation, freeze-drying was not further employed to obtain amorphous brigatinib.

[2] = Thermocycling experiments; conditions: thermocycling 5-40° C., 8 cycles
Protocol: A total of 33 slurries and 1 solution (chloroform) of starting material in solvents were prepared at room temperature. The mixtures were placed in a Crystal16™ to undergo the following temperature profile:
1. Heating at a rate of 5° C./h until reaching 40° C., with stirring (500 rpm)
2. Cooling at a rate of 5° C./h until 5° C., with stirring (200 rpm)
3. Aging for 30 min at 5° C.
After completion of the cycling program, the solids were separated from the mother liquids by centrifugation, dried under 200 mbar for 48 hours (2-ethoxyethanol for 283 hours) and analyzed by XRPD and digital imaging. For the applied crystallization conditions and corresponding obtained solid forms, see Table 24. Solid form (or mixture) following the arrow (→) was obtained upon remeasurement by XRPD after storage of the measuring plates at ambient conditions for 5 weeks.

[3] = Crash crystallization with anti-solvent addition
Protocol: In the crash-crystallization experiments, 34 different crystallization conditions were applied, using 6 different solvents and 24 different anti-solvents (see Table 17). The anti-solvent addition experiments were performed forward. For each solvent, a stock solution was prepared, the concentration of brigatinib in each case being that attained at saturation at ambient temperature after equilibration for 24 hours before filtering.
For each experiment, the anti-solvent was added to each solvent vial, with a solvent to anti-solvent ratio of 1:0.25. In the cases where no precipitation occurred, this ratio was increased to 1:1, and if again no precipitation occurred the ratio was increased to 1:4, with a waiting time of 60 minutes between the additions (up to the third addition) and 35 minutes between the third addition and fourth addition. When no crystallization occurred or not enough solids precipitated for separation, samples were kept at 5° C. for 17 hours. The precipitated solids were separated from the liquids by centrifugation and decantation. When decantation could not be applied, the liquid was carefully removed using Pasteur's pipettes. The solids were dried at 200 mbar for 17 hours and analyzed by XRPD and digital imaging. In the cases where no precipitation occurred, the solvents were evaporated at 200 mbar for 17 hours prior to lowering the vacuum to 5 mbar. All obtained solids were analyzed by XRPD and digital imaging. The measuring plates containing the final solid were stored at ambient temperature for 5 weeks. The solid form was assessed again by XRPD. The arrows in Table 18 indicate if the form changed during storage.

[4] = Quantitative solubility testing, set of 24 solvents (HPLC); conditions: for solubility at 24 h: 20 °C
Protocol: Quantitative solubility testing was performed on brigatinib starting material, employing a set of 24 solvents (DMSO, heptane and water were performed in triplicate). In a vial, about 40 mg of starting material, 400 μL of solvent and a stir bar were added. After stirring for 24 h at 20° C. […], the liquid was retrieved, filtered, and analyzed for API content by HPLC.

[5] = Slurry experiments at 20° C. and 40° C.; conditions: slurry 40° C., Chloroform; the solids dissolved after 14 days
Protocol: A total of 68 slurry experiments were performed with brigatinib both at room temperature (20° C.) and 40° C., using 34 solvents. In all cases, a solvent volume of 250 μL was used. The slurries were stirred for two weeks. At the end of the slurry time, the vials were centrifuged and solids and mother liquids separated. The solids were analyzed wet and dry by XRPD and digital imaging. The measuring plates were then stored at ambient conditions for 3-4 weeks and another XRPD was obtained of the solid, any form change is shown by an arrow.

[6] = Vapor diffusion into solution experiments; conditions: solvent Cis-Decahydronaphthalene, anti-solvent vapor MethylCyclohexane, room temperature, two weeks; dry
Protocol: For the vapor diffusion into solution experiments, saturated solutions of brigatinib were exposed to anti-solvent vapors at room temperature for two weeks. An aliquot of saturated solution was transferred to a vial which was left open and placed in a closed container with anti solvent (see Table 20). After two weeks, the samples were evaluated for solid formation. Where solids were present, the liquids were separated from the solids, which were then dried at full vacuum. In the cases where no precipitation was observed, the solvents were placed overnight at 5° C. to promote precipitation. If no solids were present, the liquids were evaporated at 200 mbar for 75 hours, or, if still no solids were present, the liquids were further evaporated at 10 mbar for a maximum of 10 days. All obtained solids were analyzed dry by XRPD and digital imaging.

COc1cc(N2CCC(N3CCN(C)CC3)CC2)ccc1Nc1ncc(Cl)c(Nc2ccccc2P(C)(C)=O)n1 [Brigatinib]
solubility ([1]; 2,2,2-trifluoroethanol/water (80:20)): > 159000 µg/mL | solubility ([1]; 2,2,2-trifluoroethanol/water (90:10)): > 172000 µg/mL | solubility ([1]; 2,2,2-trifluoroethanol): > 224000 µg/mL | Form mother liquid (XRPD) ([2]; Chloroform): A + G | Form mother liquid (XRPD) ([2]; n-Heptane): A + L | Form (XRPD) ([3]; solvent 1,4-Dioxane, anti-solvent Water, S:AS 1:4, no precipitation): A + H | Form (XRPD) ([3]; solvent Chloroform, anti-solvent tert-Butyl methyl ether, S:AS 1:4, precipitation, wet): A + G | Form (XRPD) ([3]; solvent Ethanol, anti-solvent Water, S:AS 1:4, no precipitation): A + H | solubility at 24 h ([4]; 1,2-dichloroethane, organic solvent or mixture, thermodynamic from solid, 1,2-Dichloroethane): 38300 µg/mL (≈ 65600 µM) | solubility at 24 h ([4]; 1,2-dimethoxyethane, organic solvent or mixture, thermodynamic from solid, 1,2-Dimethoxyethane): 1130 µg/mL (≈ 1930 µM) | solubility at 24 h ([4]; 1,4-dioxane, organic solvent or mixture, thermodynamic from solid, 1,4-Dioxane): 4010 µg/mL (≈ 6870 µM) | solubility at 24 h ([4]; 1-butanol, organic solvent or mixture, thermodynamic from solid): 17700 µg/mL (≈ 30400 µM) | solubility at 24 h ([4]; 2-butanone, organic solvent or mixture, thermodynamic from solid): 1110 µg/mL (≈ 1900 µM) | solubility ([4]; Dimethyl Sulfoxide, 20° C., 24 h, triplicate): 3020 µg/mL and 3050 µg/mL | solubility ([4]; Ethyl Formate, 20° C., 24 h): 990 µg/mL (≈ 1690 µM) | solubility at 24 h ([4]; N,N-dimethylacetamide, organic solvent or mixture, thermodynamic from solid): 470 µg/mL (≈ 805 µM) | solubility at 24 h ([4]; acetone, organic solvent or mixture, thermodynamic from solid): 690 µg/mL (≈ 1180 µM) | solubility at 24 h ([4]; acetonitrile, organic solvent or mixture, thermodynamic from solid): 360 µg/mL (≈ 616 µM) | solubility at 24 h ([4]; butyl acetate, organic solvent or mixture, thermodynamic from solid): 320 µg/mL (≈ 548 µM) | solubility at 24 h ([4]; chloroform, organic solvent or mixture, thermodynamic from solid, sample dissolved, no solids harvested): > 182000 µg/mL | solubility at 24 h ([4]; cyclohexane, organic solvent or mixture, thermodynamic from solid, UR = under range): < 10 µg/mL | solubility at 24 h ([4]; dichloromethane, organic solvent or mixture, thermodynamic from solid, sample dissolved, no solids harvested): > 197000 µg/mL | solubility at 24 h ([4]; dimethyl sulfoxide, organic solvent or mixture, thermodynamic from solid, triplicate): 2950 µg/mL (≈ 5050 µM) | solubility at 24 h ([4]; ethanol, organic solvent or mixture, thermodynamic from solid): 6710 µg/mL (≈ 11500 µM) | solubility at 24 h ([4]; ethyl acetate, organic solvent or mixture, thermodynamic from solid): 420 µg/mL (≈ 719 µM) | solubility at 24 h ([4]; isopropanol, organic solvent or mixture, thermodynamic from solid): 1550 µg/mL (≈ 2650 µM) | solubility at 24 h ([4]; isopropyl acetate, organic solvent or mixture, thermodynamic from solid, UR = under range): < 10 µg/mL | solubility at 24 h ([4]; methanol, organic solvent or mixture, thermodynamic from solid): 35300 µg/mL (≈ 60500 µM) | solubility at 24 h ([4]; n-heptane, organic solvent or mixture, thermodynamic from solid, triplicate, UR = under range): < 10 µg/mL | solubility at 24 h ([4]; nitromethane, organic solvent or mixture, thermodynamic from solid): 410 µg/mL (≈ 702 µM) | solubility at 24 h ([4]; p-xylene, organic solvent or mixture, thermodynamic from solid): 350 µg/mL (≈ 599 µM) | Residual solids after solubility testing, form by XRPD ([4]; set of 24 solvents, 20° C., 24 h): Form A | solubility at 24 h ([4]; tetrahydrofuran, organic solvent or mixture, thermodynamic from solid, UR = under range): < 10 µg/mL | solubility at 24 h ([4]; water, thermodynamic from solid, triplicate): 90 µg/mL (≈ 154 µM) | Form dry (XRPD) [5]: A + E | Form (XRPD) [6]: Am
